The values below come from patent publication US20220264878A1, “HERBICIDAL COMPOSITION CONTAINING R-TYPE PYRIDYLOXY CARBOXYLIC ACID DERIVATIVE AND USE THEREOF” (Qingdao Kingagroot Chemical Compound Co., Ltd., priority 2019, published 2022).

Like-named read-outs stand apart in the source and are kept apart here.

Type in all cases: in vivo
One assay has as its system Alopecurus japonicus. Kind of assay: Post-emergence foliage spray, pot culture, fresh weight inhibition (Tables 151-206; 20 days). As for the experimental part: (§1) Table 151-206: Digitaria sanguinalis, Amaranthus retroflexus, Conyza Canadensis, Capsella bursa-pastoris, Eleusine indica were collected in Huangdao of Shandong Province, Sinapis arvensis were collected in Sixian of Anhui Province, Alopecurus japonicus were collected in Tianchang of Anhui Province, Veronica didyma were collected in Siyang of Jiangsu Province.
(§2) The above weeds were cultivated by a pot culture method. […] Full and uniform weed seeds were selected, soaked in warm water at 25° C. for 6 hours, and germinated in a 28° C. biochemical incubator (darkness). The weed seeds that had just germinatedwere evenly placed on the surface of the soil and then covered with 0.5-1 cm soil according to the sizes of seeds.
(§3) The culture was carried out in a controllable sunlight greenhouse at 20 to 30° C., in natural light, and relative humidity of 57% to 72%.
(§4) The technical materials were all dissolved in acetone, and diluted with an aqueous solution containing 0.1% emulsifier Tween-80. The dilution is performed as required.
(§5) A ratio of the active ingredient A to the active ingredient B and amounts thereof in each group depends on the characteristics and toxicity of the two agents, as well as the main application purpose of a corresponding formulation. Based on the pre-tests in this study, the dosage of the active ingredient A and B applied alone and in combination were shown in the tables. Water containing the solvent and emulsifier same with the above groups but free of the agents was used as a blank control.
(§6) Table 1-48, 51-98, 101-148, 151-206: […] per treatment, that is, a total of 60 weeds were treated in one treatment.
(§7) Table 151-206: The agents were used for only once in the experiment. In the stage of weeds with 3˜4 leaves, the weeds were thinned out to maintain 15 weeds per pot and 45 weeds for each treatment, then continued to be cultured to 4˜5 leaves stage of grassy weeds, 5˜6 leaves stage of broadleaf weeds, and treated.
(§8) The well-cultured weeds were evenly placed on a platform with an area of 0.5 m^2, and a solution of agents was sprayed on the stems and leaves thereof by the 3WP-2000-type walking spray tower at a dosage of 450 kg/ha and at a spray pressure of 0.3 MPa. After all the solution was sprayed, the valve was closed. After 30 seconds, the door of the spray tower was opened, and the nutritional bowl was taken out. Then the valve was opened, and the spray tube was cleaned by spraying 50 ml of water.
(§9) A pot-culture method was employed. For the cultivation of weeds, please refer to the Section 1.1), and “Pesticide guidelines for laboratory bioactivity tests—herbicides”. As to a method for applying agents, please refer to the section 2.3.2), that is, a foliage treatment was employed. After the treatment, the weeds were routinely cultured in a greenhouse.
(§10) A method for investigating absolute number was employed, wherein whole seedlings of survival weeds were cut off with a blade along the soil surface, and the fresh weight of the weeds was weighed with an analytical balance. For dead weeds, the fresh weight thereof was zero.
(§11) Table 151-206: The investigation was performed after 20 days of the treatment for only once.
(§12) Theoretical fresh weight inhibition rate of a combination of two active ingredients in each group was calculated by the Gowing method (E0=X+Y−X*Y/100), and then compared with an actually measured inhibition rate (E), thereby effect of the combination (hereafter referred to as combined effect) on weeds was evaluated: the value of E-E0, which was greater than 10%, corresponded to a synergistic effect, the value of E-E0, which was less than −10%, corresponded to an antagonistic effect, and the value of E-E0, which was from −10% to 10%, corresponded to an additional effect.

The next assay relates to Conyza Canadensis. Described as above. As for the experimental part: as §1, §2, §3, §4, §5, §6, §7, §8, §9, §10, §11, §12
The next assay deals with Digitaria sanguinalis. The description is as above. As to conditions: Digitaria sanguinalis, 480 h, 20 days, read-out: Control effect (%) of A applied alone in corresponding dose; for pest or weed control at 75 g/ha: A 75 g a.i./ha; for pest or weed control at 150 g/ha: A 150 g a.i./ha. As for the experimental part:
as §1, §2, §3, §4, §5, §6, §7, §8, §9, §10, §11, §12

The test system of the next assay is Eleusine indica. Described as above. As for the experimental part: as §1, §2, §3, §4, §5, §6, §7, §8, §9, §10, §11, §12
The next assay concerns Sinapis arvensis. The description is as above. As for the experimental part: as §1, §2, §3, §4, §5, §6, §7, §8, §9, §10, §11, §12
The next assay has as its system Veronica didyma. Described as above. As for the experimental part: as §1, §2, §3, §4, §5, §6, §7, §8, §9, §10, §11, §12
For assay [1], the system named is Amaranthus retroflexus. Described as above. As for the experimental part:
as §2, §4, §5
(§13) In the stage of weeds with 3˜4 leaves, the weeds were thinned out to maintain 15 weeds per pot and 45 weeds for each treatment, then continued to be cultured to 4˜5 leaves stage of grassy weeds, 5˜6 leaves stage of broadleaf weeds, and treated.
as §8, §9, §10
(§14) Wherein, in the formula, X represented the fresh weight inhibition rate of the active ingredient A in a dosage of P, and Y represented the fresh weight inhibition rate of the active ingredient B in a dosage of Q.

The subject of the next assay is Capsella bursa-pastoris. Described as above. As to conditions: Capsella bursa-pastoris, 480 h, read-out: Control effect (%) of A applied alone in corresponding dose. As for the experimental part:
as §2, §4, §5, §13, §8, §9, §10, §14

For a further assay, the system named is Chenopodium album. Kind of assay: Post-emergence foliage spray, pot culture, fresh weight inhibition (Tables 1-48, 51-98, 101-148; 24 days). The settings on record: Table 95. The gist of the method:
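Pot-grown weeds were thinned to 15 per pot (45 per treatment) and sprayed on foliage at the 5–6-leaf stage for grasses or the 6–7-leaf stage for broadleaves. Agents were dissolved in acetone with 0.1% Tween-80 and applied at 450 kg/ha spray volume and 0.3 MPa. Plants were then kept in a greenhouse. Above-ground fresh weight of survivors, with dead plants counted as zero, gave inhibition versus a solvent/emulsifier blank.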

In another assay the test system is Acalypha australis. The assay is described as above. A digest of the protocol: (§15)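 Greenhouse pot-grown weeds (15 per pot, 3 pots, 4 replicates) at the 5–6-leaf (grasses) or 6–7-leaf (broadleaf) stage were sprayed once on foliage at 450 kg/ha spray volume, 0.3 MPa. Acetone solutions were diluted in 0.1% Tween-80. Aboveground fresh weight versus blank control was recorded after 24 days.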

Assay [2] concerns Amaranthus retroflexus. The description is as above. A digest of the protocol:
as §15

[3] abbreviates: A alone 75 g a.i./ha, 20 days after treatment.
Where [4] appears, read: A alone 150 g a.i./ha, 20 days after treatment.
Setting [5] is: B alone 75 g a.i./ha, 20 days after treatment.
Setting [6] is: B alone 150 g a.i./ha, 20 days after treatment.
Setting [7] is: B alone 300 g a.i./ha, 20 days after treatment.
Where [8] appears, read: B alone 600 g a.i./ha, 20 days after treatment.

Consider `COC(=O)[C@@H](C)Oc1nc(F)c(Cl)c(N)c1Cl` [Compound A67], for which the “Control effect (%) of A applied alone in corresponding dose” value (from here on “Control effect (%) of A applied alone”) in the assay with Alopecurus japonicus (A 75 g a.i./ha, 20 days) worked out at 28.7%; with Alopecurus japonicus (A 150 g a.i./ha, 20 days), 52.4%; in the assay on Conyza Canadensis (A 75 g a.i./ha, 20 days), 45.9%; with Conyza Canadensis (A 150 g a.i./ha, 20 days), 65.6%; with Eleusine indica (A 75 g a.i./ha, 20 days) it was 42.5%; in the assay on Eleusine indica (A 150 g a.i./ha, 20 days), 75.3%. Further, the “Control effect (%) of A applied alone” value in the assay with Sinapis arvensis (A 75 g a.i./ha, 20 days) stood at 45.7%; in the assay on Sinapis arvensis (A 150 g a.i./ha, 20 days), 72.8%; in the assay on Veronica didyma (A 75 g a.i./ha, 20 days) it was 23.2%; with Veronica didyma (A 150 g a.i./ha, 20 days), 43.1%; in the assay on Amaranthus retroflexus [1] (A 75 g a.i./ha, 20 days), 31.7%; in the assay with Amaranthus retroflexus [1] (A 150 g a.i./ha, 20 days), 63.9%. Moreover, the pest or weed control at 75 g/ha in the assay with Digitaria sanguinalis is 23.4%; with Capsella bursa-pastoris (A 75 g a.i./ha, 20 days), 51.4%. The pest or weed control at 150 g/ha was found to be 62.2% in the assay with Digitaria sanguinalis and 75.6% with Capsella bursa-pastoris (A 150 g a.i./ha, 20 days).

In the case of `C[C@@H](Oc1nc(F)c(Cl)c(N)c1Cl)C(=O)OCc1ccco1` [Compound A163], the “Control effect (%) of A applied alone” value in the assay with Alopecurus japonicus (setting [3]) was determined as 24.1%; with Alopecurus japonicus (setting [4]) it was 44.0%; in the assay on Conyza Canadensis (setting [3]), 39.0%; in the assay on Conyza Canadensis (setting [4]), 55.8%; in the assay on Eleusine indica (setting [3]), 31.7%; in the assay on Eleusine indica (setting [4]) it was 56.0%. The “Control effect (%) of A applied alone” value in the assay with Sinapis arvensis (setting [3]) amounted to 29.6%; in the assay on Sinapis arvensis (setting [4]) it was 47.2%; in the assay on Veronica didyma (setting [3]), 18.6%; with Veronica didyma (setting [4]), 34.5%; in the assay on Amaranthus retroflexus [1] (setting [3]), 26.6%; in the assay on Amaranthus retroflexus [1] (setting [4]), 53.7%. Also, the pest or weed control at 75 g/ha was 16.6% with Digitaria sanguinalis and 41.1% with Capsella bursa-pastoris (setting [3]). Besides, the results for the pest or weed control at 150 g/ha with Digitaria sanguinalis and in the assay on Capsella bursa-pastoris (setting [4]) were 45.4% and 60.5%, respectively.

For the compound `O=C(O)c1cc(Oc2ccc(C(F)(F)F)cc2Cl)ccc1[N+](=O)[O-]` [acifluorfen-sodium], the “Control effect (%) of B applied alone in corresponding dose” value (shortened to “Control effect (%) of B applied alone”) with Chenopodium album (37.5 g a.i./ha) was determined as 2.0%; with Chenopodium album (75 g a.i./ha), 13.7%; in the assay with Chenopodium album (150 g a.i./ha), 45.0%; with Chenopodium album (300 g a.i./ha), 81.0%; with Acalypha australis (B 37.5 g a.i./ha), 5.8%; in the assay on Acalypha australis (B 75 g a.i./ha) it was 11.6%. Also, the “Control effect (%) of B applied alone” value in the assay on Acalypha australis (B 150 g a.i./ha) is given as 46.6%; with Acalypha australis (B 300 g a.i./ha), 85.3%; in the assay on Amaranthus retroflexus [2] (acifluorfen-sodium 37.5 g a.i./ha) it was 4.4%; with Amaranthus retroflexus [2] (acifluorfen-sodium 75 g a.i./ha), 10.3%; with Amaranthus retroflexus [2] (acifluorfen-sodium 150 g a.i./ha), 45.1%; in the assay with Amaranthus retroflexus [2] (acifluorfen-sodium 300 g a.i./ha), 85.0%.

Consider `c1cc[n+]2c(c1)-c1cccc[n+]1CC2` [diquat Dibromide monohydrate], for which the “Control effect (%) of B applied alone” value in the assay on Veronica didyma (B 75 g a.i./ha, 20 days) is 5.5%; in the assay on Veronica didyma (B 150 g a.i./ha, 20 days), 12.6%; in the assay with Veronica didyma (B 300 g a.i./ha, 20 days), 41.3%; with Veronica didyma (B 600 g a.i./ha, 20 days) it was 80.4%; in the assay on Veronica didyma (setting [5]), 5.5%; in the assay on Veronica didyma (setting [6]), 12.6%. The figures for the “Control effect (%) of B applied alone” value with Veronica didyma (setting [7]) and in the assay with Veronica didyma (setting [8]) were 41.3% and 80.4%, respectively.

On to `C[n+]1ccc(-c2cc[n+](C)cc2)cc1` [paraquat dichloride], for which the “Control effect (%) of B applied alone” value with Conyza Canadensis (B 75 g a.i./ha, 20 days) was determined as 3.2%; in the assay with Conyza Canadensis (B 150 g a.i./ha, 20 days), 17.2%; in the assay on Conyza Canadensis (B 300 g a.i./ha, 20 days), 47.9%; in the assay on Conyza Canadensis (B 600 g a.i./ha, 20 days), 75.2%; in the assay on Conyza Canadensis (setting [5]), 3.2%; in the assay on Conyza Canadensis (setting [6]) it was 17.2%. The “Control effect (%) of B applied alone” value with Conyza Canadensis (setting [7]) is recorded as 47.9%; in the assay with Conyza Canadensis (setting [8]), 75.2%.
